Series [1] concerns Lepidoptera, Hemiptera, Coleoptera, Acari, Hymenoptera, Orthoptera, Diptera, and Order Thysanoptera. The settings on record: patent documents 5 and 6; cited from earlier work.
The nature of series [2]: Storage test of aqueous suspension formulations (54° C., 2 weeks): particle size and properties. Particulars: conclusion from storage test. The series is classed as physicochemical. Here is the method:
The aqueous suspension formulations of Example 2 and Comparative Example 1 were stored at 54° C. for 2 weeks, and a change in quality between before and after the storage was observed. The size of crystals before and after the storage test was measured with a laser diffraction particle size distribution measuring apparatus and under an optical microscope. [Measurement with Laser Diffraction Particle Size Distribution Measuring Apparatus] Apparatus used: Laser diffraction particle size distribution measuring apparatus SALD-2200 manufactured by Shimadzu Corp The floable formulation diluted with water after the storage test was used for the measurement of particle size with the above measuring apparatus. The A crystal form after the storage could not be suspended in water, and, thus, instead of the suspension, before use in test, was exposed to ultrasonic waves until coarse particle nuclei disappeared. [Measurement Under Optical Microscope] Apparatus used: Digital microscope VHX-200 manufactured by Keyence Corp. Images of the water-diluted floable formulations after the storage test were taken with the apparatus (magnification: 1500 times). The major axes of crystals in the images were measured, and the average was calculated. […]

Regarding `CCc1nc2cc(C)c(Oc3ccc(OC(F)(F)F)cc3)cc2c(OC(=O)OC)c1C` [Compound I, 2-Ethyl-3,7-dimethyl-6-(4-(trifluoromethoxy)phenoxy)-quinoline-4-yl methyl carbonate], the Insecticidal activity entry in series [1] is reported as “high insecticidal activity”. Turning to `CCc1nc2cc(C)c(Oc3ccc(OC(F)(F)F)cc3)cc2c(OC(=O)OC)c1C` [Example 1, 2-ethyl-3,7-dimethyl-6-(4-(trifluoromethoxy)phenoxy)quinoline-4-yl methyl carbonate], the “Physicochemical and storage stability of the crystal form” value in series [2] is reported as “high storage stability”.

The values are drawn from US8648195B2, “Stabilized crystal of 2-ethyl-3,7-dimethyl-6-(4-(trifluoromethoxy)phenoxy)quinoline-4-yl methyl carbonate, process for producing the crystal, and agricultural chemical composition comprising the crystal” (priority 2010, dated 2014).
